From ChEMBL document CHEMBL3132769, “Fragment growing to retain or alter the selectivity of anchored kinase hinge-binding fragments” (Medchemcomm, 2014)

Assays:
[1] = target: Mitogen-activated protein kinase 1 (Homo sapiens) (UniProt P28482); test: Inhibition of human full length ERK2 expressed in Escherichia coli cell assessed as substrate phosphorylation using fluorescence-labelled peptides as substrate at 0.2 uM after 90 mins by microfluidic peptide phosphorylation assay
[2] = target: Cyclin-dependent kinase 2 (Homo sapiens) (UniProt P24941); test: Inhibition of human full length CDK2 expressed in baculovirus assessed as substrate phosphorylation using fluorescence-labelled peptides as substrate at 9 uM after 90 mins by microfluidic peptide phosphorylation assay
[3] = target: T1, Inhibitor of nuclear factor kappa-B kinase subunit beta (Homo sapiens) (UniProt O14920); test: Inhibition of human full length IKK beta expressed in baculovirus assessed as substrate phosphorylation using fluorescence-labelled peptides as substrate at 0.1 uM after 90 mins by microfluidic peptide phosphorylation assay
T1 sequence (whole entry): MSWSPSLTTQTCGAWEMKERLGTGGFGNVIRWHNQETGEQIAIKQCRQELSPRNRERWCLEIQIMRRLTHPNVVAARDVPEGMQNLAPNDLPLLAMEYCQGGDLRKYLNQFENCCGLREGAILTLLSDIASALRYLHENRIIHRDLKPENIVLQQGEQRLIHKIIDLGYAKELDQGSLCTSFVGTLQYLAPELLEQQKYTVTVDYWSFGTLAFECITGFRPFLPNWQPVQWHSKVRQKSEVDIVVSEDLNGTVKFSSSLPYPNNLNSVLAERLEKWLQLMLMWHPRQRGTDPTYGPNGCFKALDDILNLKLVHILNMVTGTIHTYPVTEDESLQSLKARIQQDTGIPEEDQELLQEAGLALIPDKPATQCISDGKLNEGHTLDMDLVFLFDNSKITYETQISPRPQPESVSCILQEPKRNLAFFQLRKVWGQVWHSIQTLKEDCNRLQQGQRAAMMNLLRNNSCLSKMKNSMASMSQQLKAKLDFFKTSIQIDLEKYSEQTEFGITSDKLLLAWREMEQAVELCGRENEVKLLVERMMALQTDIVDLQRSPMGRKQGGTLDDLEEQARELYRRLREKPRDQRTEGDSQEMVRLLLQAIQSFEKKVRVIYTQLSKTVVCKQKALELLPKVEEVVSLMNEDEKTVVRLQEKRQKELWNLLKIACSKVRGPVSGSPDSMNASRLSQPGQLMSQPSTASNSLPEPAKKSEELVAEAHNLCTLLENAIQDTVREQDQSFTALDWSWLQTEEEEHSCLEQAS

[4] = target: MAP/microtubule affinity-regulating kinase 3 (Homo sapiens) (UniProt P27448); test: Inhibition of human full length c-TAK1 expressed in Escherichia coli cell assessed as substrate phosphorylation using fluorescence-labelled peptides as substrate at 0.1 uM after 90 mins by microfluidic peptide phosphorylation assay
[5] = target: Epidermal growth factor receptor (Homo sapiens) (UniProt P00533); test: Inhibition of human EGFR catalytic domain expressed in baculovirus assessed as substrate phosphorylation using fluorescence-labelled peptides as substrate at 95 uM after 90 mins by microfluidic peptide phosphorylation assay
[6] = target: T2, Testis-specific serine/threonine-protein kinase 2 (Homo sapiens) (UniProt Q96PF2); test: Inhibition of human full length TSSK2 expressed in baculovirus assessed as substrate phosphorylation using fluorescence-labelled peptides as substrate at 95 uM after 90 mins by microfluidic peptide phosphorylation assay
T2 sequence (whole entry): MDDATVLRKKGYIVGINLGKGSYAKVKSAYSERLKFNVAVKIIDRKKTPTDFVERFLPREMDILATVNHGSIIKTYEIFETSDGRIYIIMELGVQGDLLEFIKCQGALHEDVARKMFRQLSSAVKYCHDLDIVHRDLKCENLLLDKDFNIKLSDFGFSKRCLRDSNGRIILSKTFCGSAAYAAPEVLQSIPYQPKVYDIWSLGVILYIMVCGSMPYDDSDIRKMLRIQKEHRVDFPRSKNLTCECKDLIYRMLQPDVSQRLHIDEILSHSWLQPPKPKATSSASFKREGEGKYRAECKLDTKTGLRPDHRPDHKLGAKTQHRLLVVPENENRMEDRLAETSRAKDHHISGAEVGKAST

[7] = target: Serine/threonine-protein kinase Chk2 (Homo sapiens) (UniProt O96017); test: Inhibition of human full length CHK2 expressed in baculovirus assessed as substrate phosphorylation using fluorescence-labelled peptides as substrate at 95 uM after 90 mins by microfluidic peptide phosphorylation assay
Homo sapiens = organism: Homo sapiens; test: Inhibition of human full length PKA expressed in baculovirus assessed as substrate phosphorylation using fluorescence-labelled peptides as substrate at 0.06 uM after 90 mins by microfluidic peptide phosphorylation assay
[8] = target: Tyrosine-protein kinase BTK (Homo sapiens) (UniProt Q06187); test: Inhibition of human full length BTK expressed in baculovirus assessed as substrate phosphorylation using fluorescence-labelled peptides as substrate at 0.06 uM after 90 mins by microfluidic peptide phosphorylation assay
[9] = target: T3, Testis-specific serine/threonine-protein kinase 1 (Homo sapiens) (UniProt Q9BXA7); test: Inhibition of human full length TSSK1 expressed in baculovirus assessed as substrate phosphorylation using fluorescence-labelled peptides as substrate at 8 uM after 90 mins by microfluidic peptide phosphorylation assay
T3 sequence (whole entry): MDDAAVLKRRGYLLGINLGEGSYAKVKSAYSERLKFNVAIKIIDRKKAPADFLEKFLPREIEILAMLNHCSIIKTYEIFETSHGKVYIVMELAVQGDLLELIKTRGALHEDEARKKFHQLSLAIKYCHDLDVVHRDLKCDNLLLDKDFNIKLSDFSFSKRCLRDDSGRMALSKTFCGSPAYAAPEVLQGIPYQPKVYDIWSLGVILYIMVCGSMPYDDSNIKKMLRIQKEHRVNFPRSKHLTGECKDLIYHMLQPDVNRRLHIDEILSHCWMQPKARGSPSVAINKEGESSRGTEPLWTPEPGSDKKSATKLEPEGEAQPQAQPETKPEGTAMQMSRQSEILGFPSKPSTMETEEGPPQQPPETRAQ

[10] = system: Tyrosine-protein kinase ABL1 (Homo sapiens), P00519 [T315I]; test: Inhibition of human truncated ABL T315I mutant expressed in baculovirus assessed as substrate phosphorylation using fluorescence-labelled peptides as substrate at 8 uM after 90 mins by microfluidic peptide phosphorylation assay
[11] = target: Ribosomal protein S6 kinase alpha-1 (Homo sapiens) (UniProt Q15418); test: Inhibition of human full length RSK1 expressed in baculovirus assessed as substrate phosphorylation using fluorescence-labelled peptides as substrate at 70 uM after 90 mins by microfluidic peptide phosphorylation assay
[12] = target: Calcium/calmodulin-dependent protein kinase type II subunit beta (Homo sapiens) (UniProt Q13554); test: Inhibition of human CAMK2 beta catalytic domain expressed in baculovirus assessed as substrate phosphorylation using fluorescence-labelled peptides as substrate at 1000 uM after 90 mins by microfluidic peptide phosphorylation assay
[13] = target: Tyrosine-protein kinase Fyn (Homo sapiens) (UniProt P06241); test: Inhibition of human full length FYN expressed in baculovirus assessed as substrate phosphorylation using fluorescence-labelled peptides as substrate at 1000 uM after 90 mins by microfluidic peptide phosphorylation assay
Tyrosine-protein kinase Fyn (Homo sapiens), sequence (P06241 2-537 limits assumed): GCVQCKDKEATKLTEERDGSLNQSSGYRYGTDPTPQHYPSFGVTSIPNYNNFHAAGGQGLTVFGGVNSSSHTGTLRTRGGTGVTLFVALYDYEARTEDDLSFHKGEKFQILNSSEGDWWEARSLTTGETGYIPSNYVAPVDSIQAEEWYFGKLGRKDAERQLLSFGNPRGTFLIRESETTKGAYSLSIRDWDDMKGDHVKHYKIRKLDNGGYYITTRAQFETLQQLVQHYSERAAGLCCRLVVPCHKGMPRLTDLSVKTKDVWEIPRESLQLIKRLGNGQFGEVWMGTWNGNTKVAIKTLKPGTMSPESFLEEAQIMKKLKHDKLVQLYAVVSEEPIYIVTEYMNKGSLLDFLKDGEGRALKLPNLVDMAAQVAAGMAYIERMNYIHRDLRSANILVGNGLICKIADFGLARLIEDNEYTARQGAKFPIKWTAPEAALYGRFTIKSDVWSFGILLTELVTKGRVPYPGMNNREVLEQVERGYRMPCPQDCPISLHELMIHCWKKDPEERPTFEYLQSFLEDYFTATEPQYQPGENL

Epidermal growth factor receptor (Homo sapiens), sequence (P00533 whole entry, the tested form may be a part): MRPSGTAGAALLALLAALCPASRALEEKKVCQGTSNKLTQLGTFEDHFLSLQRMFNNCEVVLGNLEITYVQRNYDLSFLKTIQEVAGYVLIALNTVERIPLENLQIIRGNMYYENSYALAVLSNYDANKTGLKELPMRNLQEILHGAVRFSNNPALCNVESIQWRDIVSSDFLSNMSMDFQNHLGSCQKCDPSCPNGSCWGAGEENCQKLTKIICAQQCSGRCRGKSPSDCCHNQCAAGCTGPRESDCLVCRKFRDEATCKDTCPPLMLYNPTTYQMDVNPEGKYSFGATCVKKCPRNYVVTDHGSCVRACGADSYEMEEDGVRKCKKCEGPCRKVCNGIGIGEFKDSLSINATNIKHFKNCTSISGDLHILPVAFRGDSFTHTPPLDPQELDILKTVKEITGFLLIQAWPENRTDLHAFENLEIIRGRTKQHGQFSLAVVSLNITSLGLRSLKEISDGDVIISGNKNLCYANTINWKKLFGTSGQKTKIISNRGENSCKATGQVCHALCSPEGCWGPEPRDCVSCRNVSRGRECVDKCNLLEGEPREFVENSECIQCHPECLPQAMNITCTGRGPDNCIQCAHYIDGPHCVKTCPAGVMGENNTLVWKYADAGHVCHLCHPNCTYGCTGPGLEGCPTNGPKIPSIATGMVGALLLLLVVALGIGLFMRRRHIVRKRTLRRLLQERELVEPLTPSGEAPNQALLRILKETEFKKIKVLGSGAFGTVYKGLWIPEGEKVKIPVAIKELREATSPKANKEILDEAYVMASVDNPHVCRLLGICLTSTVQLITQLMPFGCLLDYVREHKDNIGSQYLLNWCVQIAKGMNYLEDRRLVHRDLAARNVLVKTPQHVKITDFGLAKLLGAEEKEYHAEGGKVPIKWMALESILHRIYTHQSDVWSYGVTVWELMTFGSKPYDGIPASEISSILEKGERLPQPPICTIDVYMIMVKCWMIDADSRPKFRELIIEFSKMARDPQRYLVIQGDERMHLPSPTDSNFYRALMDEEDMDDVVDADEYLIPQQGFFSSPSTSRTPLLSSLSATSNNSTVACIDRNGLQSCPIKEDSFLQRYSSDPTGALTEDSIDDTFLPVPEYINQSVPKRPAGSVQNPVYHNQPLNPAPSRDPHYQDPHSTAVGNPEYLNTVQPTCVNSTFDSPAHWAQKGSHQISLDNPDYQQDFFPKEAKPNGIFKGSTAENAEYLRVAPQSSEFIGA
Serine/threonine-protein kinase Chk2 (Homo sapiens), sequence (O96017 whole entry): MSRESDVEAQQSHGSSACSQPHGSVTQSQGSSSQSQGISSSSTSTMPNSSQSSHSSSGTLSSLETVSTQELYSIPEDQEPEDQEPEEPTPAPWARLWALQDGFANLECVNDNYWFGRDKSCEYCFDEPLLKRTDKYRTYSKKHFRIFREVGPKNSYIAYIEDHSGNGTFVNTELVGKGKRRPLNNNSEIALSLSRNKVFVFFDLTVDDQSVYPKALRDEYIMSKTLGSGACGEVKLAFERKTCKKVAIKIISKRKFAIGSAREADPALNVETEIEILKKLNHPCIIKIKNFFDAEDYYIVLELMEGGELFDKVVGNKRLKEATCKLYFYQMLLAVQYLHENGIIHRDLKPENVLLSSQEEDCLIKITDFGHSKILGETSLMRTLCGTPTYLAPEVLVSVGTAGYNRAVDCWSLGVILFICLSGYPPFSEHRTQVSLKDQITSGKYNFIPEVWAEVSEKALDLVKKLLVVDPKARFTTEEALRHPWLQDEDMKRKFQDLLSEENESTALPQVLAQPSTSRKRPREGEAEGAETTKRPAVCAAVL
Mitogen-activated protein kinase 1 (Homo sapiens), sequence (P28482 whole entry): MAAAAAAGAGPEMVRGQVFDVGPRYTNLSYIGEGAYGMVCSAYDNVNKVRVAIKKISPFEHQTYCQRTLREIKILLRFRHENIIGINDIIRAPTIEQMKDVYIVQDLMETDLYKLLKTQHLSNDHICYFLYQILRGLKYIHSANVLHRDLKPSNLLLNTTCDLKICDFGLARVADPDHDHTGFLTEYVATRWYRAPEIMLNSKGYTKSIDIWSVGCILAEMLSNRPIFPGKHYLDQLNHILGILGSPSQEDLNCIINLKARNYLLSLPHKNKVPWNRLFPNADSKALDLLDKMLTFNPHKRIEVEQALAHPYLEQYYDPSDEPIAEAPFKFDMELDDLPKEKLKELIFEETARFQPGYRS
MAP/microtubule affinity-regulating kinase 3 (Homo sapiens), sequence (P27448 whole entry, looked up, the tested form may be a part): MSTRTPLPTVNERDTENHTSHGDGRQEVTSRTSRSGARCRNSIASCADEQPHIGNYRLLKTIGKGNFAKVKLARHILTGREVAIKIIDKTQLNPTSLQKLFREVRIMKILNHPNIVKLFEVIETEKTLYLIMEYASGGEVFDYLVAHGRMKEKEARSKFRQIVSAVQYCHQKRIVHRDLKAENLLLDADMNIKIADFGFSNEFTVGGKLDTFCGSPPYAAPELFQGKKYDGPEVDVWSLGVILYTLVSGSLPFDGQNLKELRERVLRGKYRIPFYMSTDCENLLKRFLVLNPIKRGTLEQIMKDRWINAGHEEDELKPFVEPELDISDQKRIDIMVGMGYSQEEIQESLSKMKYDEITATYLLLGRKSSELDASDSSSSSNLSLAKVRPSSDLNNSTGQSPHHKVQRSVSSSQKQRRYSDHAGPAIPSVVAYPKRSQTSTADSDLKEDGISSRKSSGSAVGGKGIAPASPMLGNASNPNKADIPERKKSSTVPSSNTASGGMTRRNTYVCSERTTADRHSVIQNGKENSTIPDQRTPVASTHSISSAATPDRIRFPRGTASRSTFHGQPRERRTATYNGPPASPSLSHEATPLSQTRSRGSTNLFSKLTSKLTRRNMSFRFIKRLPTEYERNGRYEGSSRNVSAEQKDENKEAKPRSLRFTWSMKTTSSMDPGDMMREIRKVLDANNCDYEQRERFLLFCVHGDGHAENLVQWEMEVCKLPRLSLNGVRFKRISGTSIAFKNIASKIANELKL
Ribosomal protein S6 kinase alpha-1 (Homo sapiens), sequence (Q15418 whole entry, the tested form may be a part): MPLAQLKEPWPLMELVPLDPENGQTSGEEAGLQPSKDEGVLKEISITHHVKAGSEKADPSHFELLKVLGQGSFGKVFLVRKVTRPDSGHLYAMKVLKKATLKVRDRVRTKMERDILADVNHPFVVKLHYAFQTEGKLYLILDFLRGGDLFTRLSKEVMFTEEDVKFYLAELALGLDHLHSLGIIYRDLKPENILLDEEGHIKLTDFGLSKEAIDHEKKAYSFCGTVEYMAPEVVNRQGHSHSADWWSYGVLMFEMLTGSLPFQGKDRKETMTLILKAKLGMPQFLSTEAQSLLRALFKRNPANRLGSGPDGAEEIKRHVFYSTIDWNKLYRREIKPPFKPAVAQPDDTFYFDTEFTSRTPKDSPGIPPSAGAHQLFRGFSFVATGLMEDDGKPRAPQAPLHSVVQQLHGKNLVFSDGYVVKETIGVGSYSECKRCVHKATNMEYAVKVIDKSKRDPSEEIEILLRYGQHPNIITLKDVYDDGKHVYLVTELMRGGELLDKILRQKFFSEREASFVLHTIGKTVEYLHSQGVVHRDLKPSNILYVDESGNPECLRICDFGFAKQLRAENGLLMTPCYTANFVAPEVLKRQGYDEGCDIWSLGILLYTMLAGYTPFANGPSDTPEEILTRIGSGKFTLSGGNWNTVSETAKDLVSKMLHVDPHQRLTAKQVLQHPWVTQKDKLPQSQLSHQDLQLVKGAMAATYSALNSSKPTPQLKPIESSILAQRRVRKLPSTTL
Calcium/calmodulin-dependent protein kinase type II subunit beta (Homo sapiens), sequence (Q13554 whole entry, the tested form may be a part): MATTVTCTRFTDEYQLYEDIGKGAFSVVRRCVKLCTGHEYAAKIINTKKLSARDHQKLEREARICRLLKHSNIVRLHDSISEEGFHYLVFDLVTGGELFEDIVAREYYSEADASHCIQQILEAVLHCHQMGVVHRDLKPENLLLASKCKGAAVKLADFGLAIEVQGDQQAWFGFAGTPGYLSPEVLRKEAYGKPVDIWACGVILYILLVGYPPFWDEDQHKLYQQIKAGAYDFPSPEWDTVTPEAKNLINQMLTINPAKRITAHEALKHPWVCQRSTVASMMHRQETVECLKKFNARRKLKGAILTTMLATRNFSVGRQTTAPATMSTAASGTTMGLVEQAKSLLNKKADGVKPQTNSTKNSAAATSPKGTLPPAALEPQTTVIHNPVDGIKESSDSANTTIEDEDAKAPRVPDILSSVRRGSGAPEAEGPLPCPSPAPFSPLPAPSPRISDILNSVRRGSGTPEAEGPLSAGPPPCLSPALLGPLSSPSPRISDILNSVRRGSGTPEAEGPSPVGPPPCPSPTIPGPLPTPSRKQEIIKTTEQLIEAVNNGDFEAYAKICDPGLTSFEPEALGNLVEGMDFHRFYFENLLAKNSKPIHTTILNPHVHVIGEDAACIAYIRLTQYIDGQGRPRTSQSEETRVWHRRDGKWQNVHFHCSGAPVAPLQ

## Clc1ccc(C2(c3ccc(-c4ncnc5[nH]cnc45)cc3)CCNCC2)cc1
[1]
  inhibition: 7%

## NCC1CN(c2ncnc3[nH]c4cnccc4c23)CCO1 (centres undefined)
[2]
  inhibition: 26.5%

## C[C@H](CN(C)C)Oc1nc(Nc2cc3cccc(Cl)c3cn2)cnc1C#N
[3]
  inhibition: 3.5%
[4]
  inhibition: 6%

## NCCc1ccc(-c2ncnc3[nH]cnc23)cc1
[5]
  inhibition: 19.5%
[6]
  inhibition: 23.5%
[7]
  inhibition: 74%

## NC1(Cc2ccc(Cl)cc2)CCN(c2ncnc3[nH]ccc23)CC1
Homo sapiens
  inhibition: 17%
[8]
  inhibition: 0%

## NCC1CCN(c2ncnc3[nH]ccc23)CC1
[9]
  inhibition: 25.5%
[10]
  inhibition: 53%

## CNCc1ccc(-c2ncnc3[nH]cnc23)cc1
[11]
  inhibition: 48%

## c1cnc2[nH]ccc2c1
[12]
  inhibition: 30%
[13]
  inhibition: 24%
